Legend:
HepG2 cells [1] = assay: Toxicity test of compound to hepatocytes: number of viable cells (Cell Titer-Glo); format: cell-based, human; conditions: DAG 0.015%, 1 day, no addition = 1
Procedure: (§1) This aqueous solution was sterilized at 121°C for 20 min in an autoclave. On the other hand, HepG2 cells was mixed with DMEM medium (manufactured by WAKO) at 100000 cells/mL, and the cell suspension was dispensed to the wells of a 96-well flat bottom ultra low adhesion surface microplate (manufactured by Corning Incorporated, #3474) at 100 µL/well. […] Successively, this plate was cultured by being stood still in a CO2 incubator (37°C, 5% CO2) for 1 day.
The culture medium (50 µL) after culturing for 1 day was dispensed to a 96-well titer plate (manufactured by Corning Incorporated), to this culture medium was added a Cell Titer-Glo (registered trade mark) reagent (manufactured by Promega, 50 µL), and the mixture was incubated at room temperature for 10 min. The luminescence intensity was measured by a multiplate reader (manufactured by Molecular Devices, FlexStation3) to measure the number of viable cells.

HepG2 cells [2] = assay: Toxicity test of compound to hepatocytes: LDH activity measurement; format: cell-based, human; conditions: DAG 0.015%, 1 day
Procedure: as §1
To the culture medium (100 µL) after culturing for 1 day was added DMEM medium (manufactured by WAKO, 100 µL), and the plate was centrifuged by 4316.4 m·s^-2 (440G) for 15 min. The supernatant (100 µL) was dispensed to a 96-well titer plate (manufactured by Corning Incorporated), a reaction mixture (100 µL) in a cytotoxicity detection kit (manufactured by Roche Applied Science) was added, and the mixture was stood under shading at room temperature for 30 min. Successively, according to the protocol of the above-mentioned kit, the absorbance at 490 nm (reference; 600 nm) was measured by an absorbance spectrometer (manufactured by Molecular Devices, SPECTRA MAX 190), whereby the rate of the disordered cell, that is, cell disorder rate (%), was measured.

[3] = system: human squamous carcinoma cell line A431; assay: Effect of Gefitinib, Elrotinib on proliferation of A431 cells stimulated with human HB-EGF; format: cell-based; conditions: DAG 0.015%
Procedure: Each plate was cultured by being stood still in a CO2 incubator (37°C, 5% CO2). […] To the culture medium on days 4, 6 and 8 was added an ATP reagent (150 µL) (CellTiter-Glo (registered trade mark) Luminescent Cell Viability Assay, manufactured by Promega) to give a suspension, which was stood for about 10 min at room temperature, and the luminescence intensity (RLU value) was measured by FlexStation3 (manufactured by Molecular Devices), and the number of viable cells was measured by subtracting the luminescence value of the medium alone.

SMILES | relative cell number (HepG2 cells [1]; Troglitazone 20 µM) | relative cell number (HepG2 cells [1]; Troglitazone 40 µM) | relative cell number (HepG2 cells [1]; Troglitazone 60 µM) | relative cell number (HepG2 cells [1]; Troglitazone 100 µM) | cell disorder rate (HepG2 cells [2]; Troglitazone 20 µM) | cell disorder rate (HepG2 cells [2]; Troglitazone 40 µM) | cell disorder rate (HepG2 cells [2]; Troglitazone 60 µM) | cell disorder rate (HepG2 cells [2]; Troglitazone 100 µM) | % Control value of the RLU value (ATP measurement) ([3]; drug 0.1 µM, day 4) | % Control value of the RLU value (ATP measurement) ([3]; drug 0.1 µM, day 8) | % Control value of the RLU value (ATP measurement) ([3]; drug 0.3 µM, day 4) | % Control value of the RLU value (ATP measurement) ([3]; drug 0.3 µM, day 8) | % Control value of the RLU value (ATP measurement) ([3]; drug 1 µM, day 4) | % Control value of the RLU value (ATP measurement) ([3]; drug 1 µM, day 8) | % Control value of the RLU value (ATP measurement) ([3]; drug 3 µM, day 4) | % Control value of the RLU value (ATP measurement) ([3]; drug 3 µM, day 8)
Cc1c(C)c2c(c(C)c1O)CCC(C)(COc1ccc(CC3SC(=O)NC3=O)cc1)O2 (stereo not shown) [Troglitazone] | 0.68 | 0.50 | 0.48 | 0.39 | 2.68% | 14.7% | 22.5% | 60.7% |  |  |  |  |  |  |  | 
C#Cc1cccc(Nc2ncnc3cc(OCCOC)c(OCCOC)cc23)c1 [Elrotinib] |  |  |  |  |  |  |  |  | 88 % Control | 56 % Control | 89 % Control | 27 % Control | 21 % Control | 4 % Control | 4 % Control | 0 % Control
